Assay results taken from EP3064205A1, “Therapeutic use of isomeric forms of 2-(4-chlorophenyl)quinolin-4-yl)(piperidin-2-yl)methanol” (Glionova AB, priority 2015, dated 2016).
Like-named read-outs stand apart in the source and are kept apart here.

What was measured:
Assay type in all cases: cell-based, human
[1] = system: patient-derived tumor xenograft (PDX) tumor panel; assay: 3D clonogenic assay, whole panel; settings: for IC50: Homo sapiens
Method: (§1) The anti-tumor efficacy of S1 in the patient-derived tumor xenograft (PDX) tumor panel was assessed, where the efficacy of S1 in PDX tumor panel in the 96-well format, in 10 concentrations in duplicate was performed. Colony formation of tumor cell suspensions in a soft-agar matrix was observed and quantified. The output is IC50 values and dose response-relationships based on number of colonies in control and treatment wells, as identified by an automated image analysis algorithm. Stock solution of S1 was prepared in 100% DMSO at 10 mM concentration (stored at -20°C) and reused for each experiment. Compound final test concentrations: Dilution series ½ i.e.: 50µM, 15, 5, 1.5, 0.5, 0.15, 0.05, 0.015, 0.005 and 0.0015.
(§2) Tumor xenografts (also referred to as patient-derived tumor xenografts) were passaged as subcutaneous xenografts in NMRI nu/nu mice. Tumor xenograft were removed from mice under sterile conditions, mechanically disaggregated and subsequently incubated with an enzyme cocktail consisting of collagenase type IV (41 U/mL), DNase I (125 U/mL), hyaluronidase type III (100 U/mL) and dispase II (1.0 U/mL) in RPMI 1640 medium at 37°C for 60 - 120 minutes. Cells were passed through sieves of 100 µm and 40 µm mesh size and washed with RPMI 1640 medium. The percentage of viable cells was determined in a Neubauer-hemocytometer using trypan blue exclusion. Aliquots of the cells were frozen down, and stored in liquid nitrogen.
(§3) The clonogenic assay test was carried out in 96 well plate format. For each test a frozen aliquot of tumor cells prepared from tumor xenografts was thawed and assay plates were prepared as follows: each test well contained 3 layers of equal volume, 2 layers of semi-solid medium (bottom and top layer), and one layer of medium supernatant, with or without test compound. The bottom layer consisted of 0.05 mL/well Iscove's Modified Dulbecco's Medium (Invitrogen), supplemented with 20% (v/v) fetal calf serum (Sigma), 0.01% (w/v) gentamicin (Invitrogen) and 0.75% (w/v) agar (BD Biosciences). Tumor cells were added to 0.05 mL of the same culture medium supplemented with 0.4% (w/v) agar and plated onto the bottom layer. After 24 h, test compounds were added after serial dilution in DMSO and transfer in cell culture medium, and left on the cells for the duration of the experiment (continuous exposure, 0.05 mL drug overlay). Every dish included six untreated control wells and drug-treated groups in duplicate at 10 concentrations. Cultures were incubated at 37 °C and 7.5% CO2 in a humidified atmosphere for 8 to 13 days and monitored closely for colony growth using an inverted microscope. Within this period, ex vivo tumor growth lead to the formation of colonies with a diameter of >50 µm. At the time of maximum colony formation, counts were performed with an automatic image analysis system. 24 h prior to evaluation, vital colonies were stained with a sterile aqueous solution of 2-(4-iodophenyl)-3-(4-nitrophenyl)-5-phenyltetrazolium chloride (1 mg/mL, 100 µL/well). Sigmoidal concentration-response curves were fitted to the data points obtained for each tumor model using 4 parameter non-linear curve fit (Oncotest Warehouse Software). IC50 values are reported as relative IC50 values, being the concentration of test compound that give a response (inhibition of colony formation/viability) half way between the top and bottom plateau of the sigmoidal concentration-response curve (inflection point of the curve), or as absolute IC50 values, being the concentration of test compound at the intersection of the concentration-response curves with T/C = 50%. For calculation of mean IC50 values the geometric mean was used. Results are presented as mean graph plots or heat maps (individual IC50 values relative to the geometric mean IC50 value) over all cell lines as tested.

[2] = system: BXF 439; assay: 3D clonogenic assay (PDX); settings: BXF 439, Bladder; for IC50: Homo sapiens
Method: as §1, §2, §3

[3] = system: CXF 1103; assay: 3D clonogenic assay (PDX); settings: CXF 1103, Colorectal; for IC50: Homo sapiens, CXF1103
Method: as §1, §2, §3

[4] = system: CXF 1783; assay: 3D clonogenic assay (PDX); settings: CXF 1783, Colorectal; for IC50: Homo sapiens
Method: as §1, §2, §3

[5] = system: CXF 2025; assay: 3D clonogenic assay (PDX); settings: CXF 2025, Colorectal; for IC50: Homo sapiens
Method: as §1, §2, §3

[6] = system: CXF 94; assay: 3D clonogenic assay (PDX); settings: CXF 94, Colorectal; for IC50: Homo sapiens
Method: as §1, §2, §3

[7] = system: CXF 975; assay: 3D clonogenic assay (PDX); settings: CXF 975, Colorectal; for IC50: Homo sapiens
Method: as §1, §2, §3

[8] = system: LXFA 289; assay: 3D clonogenic assay (PDX); settings: LXFA 289, Lung Adeno; for IC50: Homo sapiens
Method: as §1, §2, §3

[9] = system: LXFA 623; assay: 3D clonogenic assay (PDX); settings: LXFA 623, Lung Adeno; for IC50: Homo sapiens
Method: as §1, §2, §3

[10] = system: MAXF 1162; assay: 3D clonogenic assay (PDX); settings: MAXF 1162, Breast; for IC50: Homo sapiens
Method: as §1, §2, §3

[11] = system: OVXF 1353; assay: 3D clonogenic assay (PDX); settings: OVXF 1353, Ovarian; for IC50: Homo sapiens
Method: as §1, §2, §3

[12] = system: OVXF 899; assay: 3D clonogenic assay (PDX); settings: OVXF 899, Ovarian; for IC50: Homo sapiens
Method: as §1, §2, §3

In the case of `O[C@H](c1cc(-c2ccc(Cl)cc2)nc2ccccc12)[C@@H]1CCCCN1` [S1, (R)-(2-(4-chlorophenyl)quinolin-4-yl)((S)-piperidin-2-yl)methanol], the IC50 ([1]; colony formation, mean over tumors, read-out: absolute mean IC50 value) is reported as 8.89 µM, the IC50 ([1]; colony formation, mean over tumors, read-out: relative mean IC50 value) is reported as 8.1 µM and the IC50 ([1]; geometric mean over Table 2, read-out: Mean IC50 (qeometr.) abs. IC50) is reported as 9.47 µM. It also gave an IC50 ([1]; geometric mean over Table 2, read-out: Mean IC50 (qeometr.) rel. IC50) of 8.7 µM, an IC50 ([1]; most tumors tested, read-out: IC50) of 2 to 15 µM and an IC50 ([1]; three tumors: BXF1352, CXF647, LXFA289, read-out: IC50) of over 15 µM. The “bottom plateaus of the concentration-effect curves” value ([1]; range over tested xenografts) was 0% to 47%, the “IC50 lower than the mean of all tumors” value ([1]; sensitive tumors BXF 1258 and LXFA 526, on average) was 3 fold and the “b (bottom plateau of concentration-effect curve)” value [2] was 34. For the same molecule, the “t (top plateau of concentration-effect curve)” value [2] was 95, the IC50 ([2]; read-out: abs. IC50) was 14 µM and the IC50 ([2]; read-out: rel. IC50) was 12.8 µM. For the same molecule, the “b (bottom plateau of concentration-effect curve)” value [3] was 47, the “t (top plateau of concentration-effect curve)” value [3] was 99 and the IC50 ([3]; read-out: abs. IC50) was 11.5 µM. For the same molecule, the IC50 ([3]; read-out: rel. IC50) was 6.47 µM, the “b (bottom plateau of concentration-effect curve)” value [4] was 42 and the “t (top plateau of concentration-effect curve)” value [4] was 100. For the same molecule, the IC50 ([4]; read-out: abs. IC50) was 9.26 µM, the IC50 ([4]; read-out: rel. IC50) was 8.81 µM and the “b (bottom plateau of concentration-effect curve)” value [5] was 33. For the same molecule, the “t (top plateau of concentration-effect curve)” value [5] was 97, the IC50 ([5]; read-out: abs. IC50) was 8.87 µM and the IC50 ([5]; read-out: rel. IC50) was 8.61 µM. The “b (bottom plateau of concentration-effect curve)” value [6] was 8, the “t (top plateau of concentration-effect curve)” value [6] was 98 and the IC50 ([6]; read-out: abs. IC50) was 13.3 µM. The IC50 ([6]; read-out: rel. IC50) was 12.7 µM, the “b (bottom plateau of concentration-effect curve)” value [7] was 19 and the “t (top plateau of concentration-effect curve)” value [7] was 105. For the same molecule, the IC50 ([7]; read-out: abs. IC50) was 8.75 µM, the IC50 ([7]; read-out: rel. IC50) was 8.62 µM and the IC50 ([8]; read-out: abs. IC50) was 45.4 µM. The IC50 ([8]; read-out: rel. IC50) was 39.3 µM, the “b (bottom plateau of concentration-effect curve)” value [8] was 21 and the “t (top plateau of concentration-effect curve)” value [8] was 94. For the same molecule, the IC50 ([9]; read-out: abs. IC50) was 4.63 µM, the IC50 ([9]; read-out: rel. IC50) was 4.62 µM and the “b (bottom plateau of concentration-effect curve)” value [9] was 10. The “t (top plateau of concentration-effect curve)” value [9] was 92, the IC50 ([10]; read-out: abs. IC50) was 4.64 µM and the IC50 ([10]; read-out: rel. IC50) was 4.63 µM. The “b (bottom plateau of concentration-effect curve)” value [10] was 12, the “t (top plateau of concentration-effect curve)” value [10] was 90 and the IC50 ([11]; read-out: abs. IC50) was 4.91 µM. For the same molecule, the IC50 ([11]; read-out: rel. IC50) was 4.72 µM, the “b (bottom plateau of concentration-effect curve)” value [11] was 23 and the “t (top plateau of concentration-effect curve)” value [11] was 101. For the same molecule, the IC50 ([12]; read-out: abs. IC50) was 6.38 µM, the IC50 ([12]; read-out: rel. IC50) was 6.16 µM and the “b (bottom plateau of concentration-effect curve)” value [12] was 18. For the same molecule, the “t (top plateau of concentration-effect curve)” value [12] was 100.
